According to paper PMC11438102, “Modulation of cannabinoid receptor 2 alters neuroinflammation and reduces formation of alpha-synuclein aggregates in a rat model of nigral synucleinopathy” (Journal of Neuroinflammation, 2024):
Entries after “also recorded” stand apart in the source; their conditions may differ.

Legend:
[1] = tested on: tyrosine hydroxylase, phosphorylated tyrosine hydroxylase, dopamine transporter, IBA1, GFAP in striatum; test: Western immunoblot of dopaminergic and glial markers in striatal lysates; type: in vivo; conditions: rat low cohort, 6 mg/kg i.p. daily 7 weeks, vs vehicle
Protocol: Striatal tissue from successfully targeted low cohort rats was homogenized in ice-cold TriZOL lysed using the TissueLyser system. Homogenates were incubated with 20% chloroform and centrifuged at 13,523g for 15 min at 4°C. Protein pellets were washed in methanol twice and resuspended in 1% SDS and heated to 50°C. Total protein concentrations were measured using Pierce BCA Protein Assay Kit and equal amount of protein (10–20 µg) mixed with Laemmli sample buffer were loaded in 4–20% TGX precast gels (Biorad) for gel electrophoresis. Protein was transferred to a PVDF membrane (Biorad) using a Trans Blot Turbo Transfer System, the immunoblots were immediately fixed with 0.4% paraformaldehyde (PFA) for 30 min and stained for total protein using Revert 700 (Licor) for reliable normalization. Revert staining was captured and measured on the Licor Odyssey at 700 nm for 30 s.
Non-specific protein binding was blocked with 5% milk and 0.1% Tween-20 in TBS for 1 h at room temperature, and membranes incubated with primary antibodies overnight at 4°C. The blots were washed with 0.1%TBS-Tween-20, incubated with appropriate horseradish peroxidase-conjugated secondary antibodies (1:2000) at room temperature for 1 h and developed with SuperSignal West Femto Enhancer or Pico Peroxide solutions under a chemiluminescent detection imaging system (Licor Odyssey). The density of the band was quantified using StudioLite software. Relative expression levels were normalized to its own total protein and to vehicle average expression level.

[2] = tested on: deep cervical lymph nodes (DCLN) and splenocytes; test: Flow cytometry of deep cervical lymph nodes and splenocytes (high cohort); type: in vivo, rat; conditions: 8-week endpoint
[3] = type: in vivo; conditions: 6 mg/kg i.p. daily, ~2 h post-dose
Protocol: One week after surgery, animals were randomly selected to receive daily systemic injections of either SMM-189 (intraperitoneal (i.p.), 6 mg/kg, n = 12) or vehicle (i.p., n = 12) and followed for 8 weeks (Figs. 1; n = 2 rats per group were removed due to poor nigral targeting). […] Plasma was also collected at baseline, 4 and 8 weeks post-AAV-hAsyn injections and CSF collected prior to perfusion to measure levels of SMM-189.
Blood was collected from the tail vein at baseline and every 4 weeks post-AAV (~ 2 h post-treatment injection) for plasma to measure SMM-189 levels in low and high cohorts and for PBMCs to immunophenotype circulating immune cells in the high cohort animals. […] Tails were cleaned with ethanol and approximately 400μL of blood drawn from the lateral tail vein using a low dead space 25ga needle and syringe and blood immediately placed into an EDTA tube.
CSF was collected at endpoint from low cohort animals. […] A sterile pulled micropipettes attached to tubing and a syringe punctured into the cisterna magna and clean CSF was aspirated and collected in a 0.2mL Eppendorf and stored at -80°C.
A total of 50 µL aliquots of plasma or CSF were prepared by protein precipitation with 100 µL acetonitrile (spiked with the internal standard d^5-SMM-189) followed by centrifugation at 10,000g for 10 min at 4°C. Chromatographic separation of the supernatant was performed using a Zorbax SB-C18 3.5 μm 4.6 × 150 mm and a Shimadzu HPLC Nexera XR with Solvent Delivery Module LC-20ADXR, CTO-20AC prominence column oven (temperature 40 °C), a DGU-20A5R Degassing Unit, and a SIL-20ACXR autosampler. The aqueous mobile phase (A) was 95% water and 5% acetonitrile (B) was 100% acetonitrile.

[4] = tested on: CB2; parameters: method as in PMID 27766068; conditions: microglia; cited from earlier work
[5] = tested on: CD206, YM1, TGFb, TNF, CB2 gene expression; test: qPCR of immune markers in frontal cortex and PBMCs; type: in vivo; conditions: rat low cohort
Protocol: PBMCs were isolated from blood of low cohort rats at euthanasia (8 weeks) for qPCR analysis of immune genes and from blood of high cohort rats at baseline, 4 and 8 weeks after AAV2/5-human WT Asyn and evaluated with flow cytometry for a longitudinal immunophenotype assessment. Red blood cells were lysed using 1x RBC lysis buffer (Biolegend Cat#420301) for 5 min in the dark. Lysis buffer was neutralized by adding 1x HBSS (Gibco Cat#14175095). Cells were pelleted by centrifugation at 400g for 5 min, supernatant removed, and cells washed with HBSS. For the high cohort, cells were resuspended in 200μL of PBS and transferred to a 96-well v-bottom plate for flow cytometry staining. For low cohort, 10,000 cells were lysed in 600μL RLT lysis buffer (Qiagen Cat#79216) + 1% BME, further homogenized by centrifugation through a QiaShredder column (2 min at 21,130g). Lysate was then stored at -80°C and later processed for RNA extraction.
Total RNA was extracted from the frontal cortex and from PBMCs of low cohort animals and standardized across all samples and groups. In short, tissue was suspended in Trizol and homogenized with a TissueLyser (Retsch). Homogenate was incubated with chloroform and RNA separated by centrifugation of […] for 15 min at 4°C. RNA was further isolated with a RNAeasy mini kit (Qiagen). The RNA (1 µg) was then reverse transcribed to cDNA and analyzed with primers (Integrated DNA Technologies) for pro-inflammatory and anti-inflammatory immune markers and CB2 (Table 1) by qRT-PCR using protocols previously published. Resulting threshold cycle (Ct) values were analyzed by the 2-ΔΔCt method using the AAV2/5-hαsyn + vehicle as the control group and normalized to GAPDH for PBMCs and HPRT1 for frontal cortex as the housekeeping genes.

[6] = frontal cortex, relative to vehicle

O=C(c1ccccc1)c1cc(O)c(-c2cc(Cl)cc(Cl)c2)c(O)c1 [SMM-189]
myeloid marker IBA1 in striatum, western [1]: no differences | phosphorylated tyrosine hydroxylase in striatal lysates [1]: no significant changes | tyrosine hydroxylase in striatal lysates [1]: no significant changes | astrocyte marker GFAP expression levels in striatum, western ([1]; p = 0.0746): trend to decrease | dopamine transporter in striatal lysates ([1]; trend to increase p = 0.051): no significant changes | DCLN myeloid populations including classical CD43-His48+ or CD11b+ monocytes [2]: No frequency difference | Tregs (foxp3+CD4+) in DCLN [2]: significant reduction | CD4 to CD8 lymphocyte ratio in DCLN ([2]; p = 0.0503): trend was found in the CD4 to CD8 lymphocyte ratio to be decreased | CD11b+ myeloid splenocytes ([2]; p = 0.0541): trend to increase | CD4 to CD8 lymphocyte ratio in spleen ([2]; p = 0.0962): no effect; also recorded: trend was found in the CD4 to CD8 lymphocyte ratio to be decreased | SMM-189 plasma levels compared to vehicle ([3]; rat high cohort, 4 and 8 weeks): increased | level of plasma SMM-189 compared to vehicle-treated rats ([3]; rat low cohort, 4 and 8 weeks): Significant increases | Levels of SMM-189 in the CSF, average ± SEM ([3]; rat low cohort, endpoint): 0.44 ± 0.22 ng/mL | levels of nuclear phosphorylated cAMP response-element binding protein (pCREB) [4]: increased | TGFβ gene expression ([5]; PBMCs, relative to vehicle): increased | TNF transcript ([5]; endpoint PBMCs, relative to vehicle): decreased | CB2 gene expression ([5]; frontal cortex and PBMCs, between groups): not different | CD206 gene expression [5, 6]: increased | YM1 gene expression [5, 6]: increased
